Results as given in ChEMBL document CHEMBL6178017, “Intercepting the Downstream of the Estrogen Receptor Signaling Pathway: Discovery of a Potent and Efficient SRC-3 PROTAC Degrader for Overcoming Endocrine Resistance Breast Cancer” (J Med Chem, 2025).
Active and inactive are the calls of the source. The calls are words filed in the database; no cut-off is given here.

Legend:
[1] = Induction of cell cycle arrest in tamoxifen-resistant human LCC2 cells assessed as accumulation of cells at G1 phase at 10 uM incubated for 48 hrs by propidium iodide staining based flow cytometry (reference value: 78.71%); format: functional
[2] = system: MCF7; test: Induction of apoptosis in human MCF7 cells assessed as maximal increase in early apoptotic cells at 10 uM incubated for 48 hrs by AnnexinV-FITC/PI staining based flow cytometry; format: functional
[3] = Induction of apoptosis in tamoxifen-resistant human LCC2 cells assessed as necrotic cells at 1 uM incubated for 48 hrs by AnnexinV-FITC/PI staining based flow cytometry (reference value: 1.16%); format: functional, Tamoxifen-resistant LCC2 cell
[4] = Induction of apoptosis in tamoxifen-resistant human LCC2 cells assessed as necrotic cells at 10 uM incubated for 48 hrs by AnnexinV-FITC/PI staining based flow cytometry (reference value: 1.16%); format: functional, Tamoxifen-resistant LCC2 cell
[5] = target: Protein cereblon/Nuclear receptor coactivator 1 (Homo sapiens) (UniProt Q15788+Q96SW2); test: PROTAC activity at CRBN/SRC-1 in human MCF7 cells assessed as induction of SRC-1 degradation at 0.01 to 10 uM measured after 36 hrs by immunoblot analysis; format: cell-based; settings: dose 0.01-10 µM
[6] = Induction of apoptosis in tamoxifen-resistant human LCC2 cells assessed as viable cells at 10 uM incubated for 48 hrs by AnnexinV-FITC/PI staining based flow cytometry (reference value: 88.09%); format: functional; settings: Tamoxifen-resistant LCC2 cell, read-out: Activity
[7] = target: T1, Protein cereblon/Nuclear receptor coactivator 3 (Homo sapiens, UniProt Q9Y6Q9+Q96SW2); test: PROTAC activity at CRBN/SRC-3 in tamoxifen-resistant human LCC2 cells assessed as induction of ER-alpha degradation at 5 uM incubated for 24 hrs by immunoblot analysis; format: cell-based; settings: Tamoxifen-resistant LCC2 cell
Target sequence in this assay (Q96SW2 whole entry partner): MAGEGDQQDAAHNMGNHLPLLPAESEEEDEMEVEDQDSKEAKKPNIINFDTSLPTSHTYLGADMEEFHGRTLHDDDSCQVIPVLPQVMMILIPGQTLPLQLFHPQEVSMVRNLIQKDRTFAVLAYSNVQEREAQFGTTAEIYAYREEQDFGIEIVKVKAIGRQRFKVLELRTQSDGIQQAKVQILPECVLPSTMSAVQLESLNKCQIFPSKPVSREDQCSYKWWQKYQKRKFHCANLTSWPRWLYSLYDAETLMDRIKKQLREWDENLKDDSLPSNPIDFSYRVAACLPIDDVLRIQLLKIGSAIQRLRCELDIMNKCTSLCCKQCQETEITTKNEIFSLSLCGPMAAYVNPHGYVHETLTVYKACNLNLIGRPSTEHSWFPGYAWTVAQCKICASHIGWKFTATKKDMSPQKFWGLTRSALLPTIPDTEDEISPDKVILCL
Target sequence in this assay (Q9Y6Q9 2-1424 limits assumed): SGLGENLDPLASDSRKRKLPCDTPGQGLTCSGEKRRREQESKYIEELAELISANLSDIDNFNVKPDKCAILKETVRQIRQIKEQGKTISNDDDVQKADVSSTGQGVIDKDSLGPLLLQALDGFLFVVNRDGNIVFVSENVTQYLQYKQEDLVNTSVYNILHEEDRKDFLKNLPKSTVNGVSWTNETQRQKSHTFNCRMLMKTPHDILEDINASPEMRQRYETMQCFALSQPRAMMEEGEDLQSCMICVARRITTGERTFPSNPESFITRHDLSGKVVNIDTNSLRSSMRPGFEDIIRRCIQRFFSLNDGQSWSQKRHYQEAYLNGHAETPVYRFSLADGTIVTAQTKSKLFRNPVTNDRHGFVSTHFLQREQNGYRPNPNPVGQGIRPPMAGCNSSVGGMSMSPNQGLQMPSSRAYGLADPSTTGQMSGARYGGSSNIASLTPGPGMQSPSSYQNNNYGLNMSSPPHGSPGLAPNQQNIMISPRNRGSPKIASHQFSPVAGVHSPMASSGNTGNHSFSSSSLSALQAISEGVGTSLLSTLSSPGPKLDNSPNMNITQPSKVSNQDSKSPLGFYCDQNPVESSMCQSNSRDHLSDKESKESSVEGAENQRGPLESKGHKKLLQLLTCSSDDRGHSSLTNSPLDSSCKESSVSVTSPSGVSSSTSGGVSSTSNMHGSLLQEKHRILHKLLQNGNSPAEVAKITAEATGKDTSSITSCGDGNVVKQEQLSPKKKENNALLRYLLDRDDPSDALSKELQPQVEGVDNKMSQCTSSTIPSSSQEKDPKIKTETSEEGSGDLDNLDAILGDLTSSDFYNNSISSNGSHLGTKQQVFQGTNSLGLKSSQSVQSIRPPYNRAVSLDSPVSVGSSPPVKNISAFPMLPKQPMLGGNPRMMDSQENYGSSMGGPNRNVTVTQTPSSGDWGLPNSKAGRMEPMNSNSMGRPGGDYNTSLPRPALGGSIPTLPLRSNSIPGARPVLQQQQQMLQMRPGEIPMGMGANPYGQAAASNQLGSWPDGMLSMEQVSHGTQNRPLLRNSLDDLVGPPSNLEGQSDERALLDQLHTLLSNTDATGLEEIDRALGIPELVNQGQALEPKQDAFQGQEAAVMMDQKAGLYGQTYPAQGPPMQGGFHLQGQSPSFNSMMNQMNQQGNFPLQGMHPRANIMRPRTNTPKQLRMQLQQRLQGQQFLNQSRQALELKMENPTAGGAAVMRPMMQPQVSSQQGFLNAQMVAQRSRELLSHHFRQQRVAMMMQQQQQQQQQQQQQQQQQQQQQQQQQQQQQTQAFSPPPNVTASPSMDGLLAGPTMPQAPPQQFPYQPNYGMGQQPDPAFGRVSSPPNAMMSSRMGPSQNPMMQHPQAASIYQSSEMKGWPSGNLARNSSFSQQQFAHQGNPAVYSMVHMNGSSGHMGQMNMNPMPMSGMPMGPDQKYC

[8] = system: MCF7; test: Antiproliferative activity against human MCF7 cells overexpressing EGFR assessed as inhibition of cell growth by CCK-8 assay; format: functional, cell-based
[9] = Induction of apoptosis in tamoxifen-resistant human LCC2 cells assessed as late apoptotic cells at 20 uM incubated for 48 hrs by AnnexinV-FITC/PI staining based flow cytometry (reference value: 4.83%); format: functional, Tamoxifen-resistant LCC2 cell
[10] = Toxicity against Balb/c mouse xenografted with tamoxifen-resistant human LCC2 cells assessed as effect on heart pathological changes at 3 to 5 uM/Kg, ip administered once every 2 days for 23 days and measured on day 25 by Hematoxylin-Eosin based […] staining analysis; format: organism-based; settings: in vivo, 600 h, dose 3-5 µM/Kg, time 25 day
[11] = Induction of apoptosis in tamoxifen-resistant human LCC2 cells assessed as early apoptotic cells at 20 uM incubated for 48 hrs by AnnexinV-FITC/PI staining based flow cytometry (reference value: 5.92%); format: functional, Tamoxifen-resistant LCC2 cell
[12] = target: Voltage-gated inwardly rectifying potassium channel KCNH2 (Homo sapiens, UniProt Q12809)
Sequence of Voltage-gated inwardly rectifying potassium channel KCNH2 (Q12809 whole entry): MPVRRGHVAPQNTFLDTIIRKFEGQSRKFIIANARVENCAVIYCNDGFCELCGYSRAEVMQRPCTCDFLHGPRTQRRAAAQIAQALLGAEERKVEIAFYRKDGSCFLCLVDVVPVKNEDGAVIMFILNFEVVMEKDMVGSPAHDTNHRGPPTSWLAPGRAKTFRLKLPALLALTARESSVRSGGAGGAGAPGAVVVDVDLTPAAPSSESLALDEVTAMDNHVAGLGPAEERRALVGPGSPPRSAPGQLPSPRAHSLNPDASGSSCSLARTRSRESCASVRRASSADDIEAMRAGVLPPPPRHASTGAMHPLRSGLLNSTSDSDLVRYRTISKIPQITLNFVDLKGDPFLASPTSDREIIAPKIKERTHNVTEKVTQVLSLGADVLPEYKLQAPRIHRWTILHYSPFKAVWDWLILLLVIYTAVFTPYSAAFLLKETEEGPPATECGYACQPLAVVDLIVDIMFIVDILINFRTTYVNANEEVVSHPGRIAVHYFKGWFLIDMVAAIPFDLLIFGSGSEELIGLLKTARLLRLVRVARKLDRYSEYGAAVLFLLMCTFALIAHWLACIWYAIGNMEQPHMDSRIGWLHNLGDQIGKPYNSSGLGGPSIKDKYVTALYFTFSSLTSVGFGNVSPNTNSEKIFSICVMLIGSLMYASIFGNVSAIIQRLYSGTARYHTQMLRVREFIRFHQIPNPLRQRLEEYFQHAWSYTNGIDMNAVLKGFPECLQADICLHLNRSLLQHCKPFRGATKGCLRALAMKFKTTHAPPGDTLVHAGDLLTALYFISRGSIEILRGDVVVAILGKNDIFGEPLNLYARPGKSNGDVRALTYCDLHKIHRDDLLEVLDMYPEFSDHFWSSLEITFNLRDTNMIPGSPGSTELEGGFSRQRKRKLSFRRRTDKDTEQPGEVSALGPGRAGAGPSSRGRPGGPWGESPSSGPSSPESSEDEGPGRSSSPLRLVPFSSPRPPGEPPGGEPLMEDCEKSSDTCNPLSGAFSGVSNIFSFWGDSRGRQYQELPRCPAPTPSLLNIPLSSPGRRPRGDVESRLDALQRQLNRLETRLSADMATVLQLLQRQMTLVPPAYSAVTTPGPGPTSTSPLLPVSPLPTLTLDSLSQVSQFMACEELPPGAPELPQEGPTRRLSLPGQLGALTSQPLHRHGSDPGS

[13] = target: Cytochrome P450 2C9 (Homo sapiens, UniProt P11712); test: Inhibition of CYP2C9 (unknown origin) using diclofenac as substrate; format: ADME
Sequence of Cytochrome P450 2C9 (P11712 whole entry): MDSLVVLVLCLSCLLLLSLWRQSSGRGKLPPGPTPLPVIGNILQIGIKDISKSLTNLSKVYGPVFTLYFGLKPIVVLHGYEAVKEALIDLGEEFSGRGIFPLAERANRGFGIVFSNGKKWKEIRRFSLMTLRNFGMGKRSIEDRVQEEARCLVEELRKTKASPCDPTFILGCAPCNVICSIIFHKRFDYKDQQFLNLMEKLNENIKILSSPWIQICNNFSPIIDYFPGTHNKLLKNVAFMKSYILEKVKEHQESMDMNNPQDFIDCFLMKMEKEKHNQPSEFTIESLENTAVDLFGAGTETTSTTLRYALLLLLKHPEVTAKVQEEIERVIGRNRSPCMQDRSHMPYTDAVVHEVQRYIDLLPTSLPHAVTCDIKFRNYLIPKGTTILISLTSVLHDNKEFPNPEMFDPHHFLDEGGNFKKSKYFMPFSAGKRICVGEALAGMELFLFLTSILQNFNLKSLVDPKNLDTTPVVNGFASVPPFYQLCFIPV

[14] = system: Tamoxifen-resistant LCC2 cell; test: Antitumor activity against tamoxifen-resistant human LCC2 cells xenografted in Balb/c mouse assessed as reduction in Ki67 expression in tumor tissues at 5 uM/Kg, ip administered once every 2 days for 23 days and measured on day 25 by Hematoxylin-Eosin staining based immunohistochemical staining analysis; format: functional, organism-based; settings: time 25.0 day
[15] = target: T1, Protein cereblon/Nuclear receptor coactivator 3; test: PROTAC activity at CRBN/SRC-3 in tamoxifen-resistant human LCC2 cells assessed as degradation of CDK4 by measuring downregulation of CDK4 protein level at 10 uM measured after 36 hrs by diaPASEF-based quantitative proteomics analysis; settings: Tamoxifen-resistant LCC2 cell
Target sequence in this assay (Q96SW2 whole entry partner): as the sequence (Q96SW2 whole entry partner) above
Target sequence in this assay (Q9Y6Q9 2-1424 limits assumed): as the sequence (Q9Y6Q9 2-1424 limits assumed) above

[16] = Cmax in Balb/c mouse at 4 mg/kg, ip by LC-MS/MS analysis; format: ADME, organism-based; settings: in vivo
[17] = system: Mus musculus; test: In vivo PROTAC activity at CRBN/SRC-3 in Balb/c mouse xenografted with tamoxifen-resistant human LCC2 cells assessed as downregulation of ER-alpha protein level in tumor tissues at 5 uM/Kg, ip administered once every 2 days for 23 days and measured on day 25 by western blot analysis; format: functional, organism-based; settings: time 25.0 day
[18] = target: T1, Protein cereblon/Nuclear receptor coactivator 3; test: PROTAC activity at CRBN/SRC-3 in tamoxifen-resistant human LCC2 cells assessed as induction of SRC-3 degradation at 1 uM preincubated with proteasome inhibitor, MG-132 for 2 hrs followed by incubation with compound and measured after 36 hrs by immunoblot analysis; format: cell-based; settings: Tamoxifen-resistant LCC2 cell
Target sequence in this assay (Q96SW2 whole entry partner): as the sequence (Q96SW2 whole entry partner) above
Target sequence in this assay (Q9Y6Q9 2-1424 limits assumed): as the sequence (Q9Y6Q9 2-1424 limits assumed) above

[19] = target: Cereblon/Casein kinase I alpha (Homo sapiens) (UniProt P48729+Q96SW2); test: PROTAC activity at CRBN/CK-1 alpha in tamoxifen-resistant human LCC2 cells assessed as degradation of CK-1alpha at 10 uM measured after 36 hrs by diaPASEF-based quantitative proteomics analysis; settings: Tamoxifen-resistant LCC2 cell
Sequence of Cereblon/Casein kinase I alpha (Homo sapiens) (P48729 2-337 limits assumed): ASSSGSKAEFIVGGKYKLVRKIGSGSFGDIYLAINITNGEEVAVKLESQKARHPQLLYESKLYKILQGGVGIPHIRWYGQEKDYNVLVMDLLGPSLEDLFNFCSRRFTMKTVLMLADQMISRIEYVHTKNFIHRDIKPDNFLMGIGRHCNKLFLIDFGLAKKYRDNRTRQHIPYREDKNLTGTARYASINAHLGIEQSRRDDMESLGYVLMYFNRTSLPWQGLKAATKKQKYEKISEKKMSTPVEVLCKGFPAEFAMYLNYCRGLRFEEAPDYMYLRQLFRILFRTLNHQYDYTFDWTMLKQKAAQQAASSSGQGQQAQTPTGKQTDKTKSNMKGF
Sequence of Cereblon/Casein kinase I alpha (Homo sapiens) (Q96SW2 whole entry partner): as the sequence (Q96SW2 whole entry partner) above

[20] = system: MCF7; test: Induction of apoptosis in human MCF7 cells assessed as increase in late apoptotic cells at 1 to 20 uM incubated for 48 hrs by AnnexinV-FITC/PI staining based flow cytometry; format: functional, cell-based; settings: dose 1-20 µM
[21] = target: T1, Protein cereblon/Nuclear receptor coactivator 3; test: PROTAC activity at CRBN/SRC-3 in human MCF7 cells assessed as induction of SRC-3 degradation at 1 uM preincubated with SI-2 for 2 hrs followed by incubation with compound and measured after 36 hrs by immunoblot analysis; format: cell-based
Target sequence in this assay (Q96SW2 whole entry partner): as above
Target sequence in this assay (Q9Y6Q9 2-1424 limits assumed): as the sequence (Q9Y6Q9 2-1424 limits assumed) above

[22] = target: T1, Protein cereblon/Nuclear receptor coactivator 3; test: PROTAC activity at CRBN/SRC-3 in human MCF7 cells assessed as induction of SRC-3 degradation at 1 uM preincubated with proteasome inhibitor, bortezomib for 2 hrs followed by incubation with compound and measured after 36 hrs by immunoblot analysis; format: cell-based
Target sequence in this assay (Q96SW2 whole entry partner): as the sequence (Q96SW2 whole entry partner) above
Target sequence in this assay (Q9Y6Q9 2-1424 limits assumed): as the sequence (Q9Y6Q9 2-1424 limits assumed) above

[23] = target: T1, Protein cereblon/Nuclear receptor coactivator 3; test: PROTAC activity at CRBN/SRC-3 in human MCF7 cells harboring ER-alpha D538G mutant assessed as downregulation of ER-alpha level at 0.01 to 10 uM measured after 36 hrs by immunoblot analysis; format: cell-based; settings: dose 0.01-10 µM
Target sequence in this assay (Q96SW2 whole entry partner): as the sequence (Q96SW2 whole entry partner) above
Target sequence in this assay (Q9Y6Q9 2-1424 limits assumed): as the sequence (Q9Y6Q9 2-1424 limits assumed) above

[24] = target: T1, Protein cereblon/Nuclear receptor coactivator 3; test: PROTAC activity at CRBN/SRC-3 in human MCF7 cells overexpressing EGFR assessed as induction of SRC-3 degradation measured after 36 hrs by immunoblot analysis; format: cell-based; settings: dose 0.01-10 µM
[25] = target: T1, Protein cereblon/Nuclear receptor coactivator 3; test: PROTAC activity at CRBN/SRC-3 in tamoxifen-resistant human LCC2 cells assessed as induction of SRC-3 degradation at 1 uM preincubated with autophagy inhibitor, choloroquine for 2 hrs followed by incubation with compound and measured after 36 hrs by immunoblot analysis; format: cell-based; settings: Tamoxifen-resistant LCC2 cell
[26] = target: T1, Protein cereblon/Nuclear receptor coactivator 3; test: PROTAC activity at CRBN/SRC-3 in human MCF7 cells assessed as induction of SRC-3 degradation incubated for 36 hrs by immunoblot analysis; format: cell-based
[27] = target: T1, Protein cereblon/Nuclear receptor coactivator 3; test: PROTAC activity at CRBN/SRC-3 in human MCF7 cells assessed as induction of SRC-3 degradation at 0.1 uM incubated for 36 hrs by immunoblot analysis; format: cell-based
[28] = Induction of apoptosis in tamoxifen-resistant human LCC2 cells assessed as late apoptotic cells at 10 uM incubated for 48 hrs by AnnexinV-FITC/PI staining based flow cytometry (reference value: 4.83%); format: functional, Tamoxifen-resistant LCC2 cell
[29] = system: Tamoxifen-resistant LCC2 cell; test: Antitumor activity against tamoxifen-resistant human LCC2 cells xenografted in Balb/c mouse assessed as inhibition of tumor growth at 3 uM/Kg, ip administered once every 2 days for 23 days; format: functional, organism-based; settings: time 23.0 day
[30] = target: T1, Protein cereblon/Nuclear receptor coactivator 3; test: PROTAC activity at CRBN/SRC-3 in human MCF7 cells assessed as maximal induction of SRC-3 degradation at 1 uM incubated for 36 hrs by immunoblot analysis; format: cell-based

SMILES: C/C(=N\Nc1nc2ccccc2n1C1CN(C2CCN(c3cccc4c3C(=O)N(C3CCC(=O)NC3=O)C4=O)CC2)C1)c1ccccn1 (stereo not given)
- Activity [1]: 85.01%
- Activity [2]: ~35%
- Activity [3]: 9.63%
- Activity [4]: 6.62%
- Activity [5]: Active; Moderate Degradation Against Src-1 Compared To Src-3 Observed
- viability at 10 µM [6]: 48.7%
- Activity [7]: Active; Higher Efficacy Compared To Fulvestrant At The Same Concentration Observed
- IC50 [8]: 70 nM
- Activity [9]: 14.47%
- Activity [10]: Non-toxic
- Activity [11]: 31.96%
- IC50 [12]: 1100 nM
- IC50 [13]: > 10000 nM
- Activity [14]: Active
- Activity [15]: Active
- Cmax [16]: 31.2 ng/mL
- Activity [17]: Active
- Activity [18]: inactive
- Activity [19]: inactive
- Activity [20]: Active
- Activity [21]: Active
- Activity [22]: inactive
- Activity [23]: Active
- Activity [24]: Dose-dependent-effect
- Activity [25]: Active
- DC50 [26]: 31 nM
- Activity [27]: Active
- Activity [28]: 20.48%
- Activity [29]: Active
- Activity [30]: Active
